Experimental data published in US8092790B2, “Methods of making formulations to affect insect behavior and/or bird behavior” (Bug Buster, Ltd., priority 2003, dated 2012).

Legend:
[1] = test system: fruit flies (Drosophila spp.); assay: Attraction of fruit flies, sticky trap with treated surface; type: in vivo
Text: An exemplary compound, methyl anthranilate, was combined with fatty acid and used to attract insects, in particular, fruit flies (Drosophila spp.). This exemplary compound will also repel at least some birds. […] An exemplary compound, methyl anthranilate, was combined with fatty acid and applied to a surface (e.g., a treated surface) of a sticky trap and used to attract and to trap insects, in particular, fruit flies (Drosophilia spp.). This exemplary compound will also repel at least some birds.
A trial compared insect attraction for an untreated surface of a sticky trap and with a treated surface of a sticky trap.
For example, grape crushing and/or fermenting may release competitive agents.

[2] = test system: corn ear worm (Heliothus zea); assay: Crop field trials with lambda cyalothrin insecticide, corn ear worm larvae; type: in vivo
Text: An exemplary compound, methyl anthranilate, was combined with fatty acid and applied to crop fields (again, this formulation will also repel at least some birds), contemporaneously, an insecticide having a pyrethrin, lambda cyalothrin, as an active ingredient was applied to crop fields (e.g., WARRIOR™).
In another trial, an insecticide that included a pyrethrin, lambda cyalothrin, was applied to crop fields (e.g., WARRIOR™). […] Later, an exemplary compound, methyl anthranilate, combined with a fatty acid, was applied to the same crop field. […] An exemplary composition included an exemplary compound, methyl anthranilate, fatty acid and an insecticide that included a pyrethrin, lambda cyalothrin, as an active ingredient (e.g., WARRIOR™). The exemplary composition was applied to crop fields.

[3] = test system: banded sunflower moth (Cochylis hospes), sunflower seed head larvae; assay: Sunflower field application, seed head larvae; type: in vivo; settings: BIRDSHIELD at 0.006%, approx. two weeks after ASANA; within a minute of application
Text: An insecticide such as ASANA™ (active ingredient esfenvalerate) is suitable for use in controlling banded sunflower moth (Cochylis hospes). An exemplary composition that included an exemplary compound, methyl anthranilate (e.g., BIRDSHIELD™), was applied to sunflowers.
(§1) An insecticide, ASANA™, was applied to sunflowers. Approximately two weeks later, an exemplary compound, methyl anthranilate (e.g., BIRDSHIELD™ at 0.006%) was applied to the same sunflowers. […] This behavior caused the larvae to fall off of the flower portions of the sunflowers. In addition, the exemplary compound affected behavior of other insects on the treated sunflowers.

mites and spiders = assay: Sunflower field application, other insects on treated sunflowers; type: in vivo; settings: BIRDSHIELD at 0.006%, approx. two weeks after ASANA
Text: as §1

[4] = test system: house flies (Drosophila melanogater); assay: Three-section Petri dish choice test; type: in vivo
Text: Colonies of house flies (Drosophila melanogater) were selected for subsequent placement in covered Petri dishes wherein each Petri dish was divided into three sections. One of the sections, a center section, was used as a control. An exemplary compound, methyl anthranilate (e.g., BIRDSHIELD™ at 0.006%) was applied to a piece of filter paper and placed in a first section while an […] (e.g., deionized water), was applied to another piece of filter paper and placed in second section. Flies were then released into the center control section and lids were placed on the Petri dishes.
More specifically, 100 captive flies were used and the sections were approximately equal in size, e.g., 33% of total space per section. Flies were released into the neutral zone of each Petri dish and monitored after 15 minutes and one hour.

insects = assay: Glue coated cardboard traps in a field; type: in vivo
Description: Trials were performed using an exemplary compound as part of a trapping device (e.g., a glue coated cardboard surface). Five traps were each treated with a 1 ml solution of 0.0156%, 0.03125%, 0.0625%, 0.125% and 0.25% methyl anthranilate, respectively. The treated traps were then placed at relatively random locations in a field. An untreated trap was placed adjacent to each treated trap and the number of insects adhered to each trap recorded as a function of time.

[5] = test system: striped sunflower head moth larvae; assay: Exemplary compound on sunflowers previously sprayed with esfenvalerate, moth larvae emerging; type: in vivo
Text: An exemplary compound, methyl anthranilate, was combined with long chain fatty acids. An exemplary method applied the mixture to fifteen maturing sunflowers in the interior of two fields that were previously sprayed with an insecticide, esfenvalerate (e.g., the insecticide product ASANA™). The mixture that included the exemplary compound was applied by spraying the mixture across the head of each flower (e.g., where seeds exist). The number of striped sunflower head moth larvae and weevils, emerging from the seeds, was recorded.

ant nest = assay: Treatment of ant nest; type: in vivo; settings: diluted form; about 24 hours post-application
Text: An exemplary method includes applying an exemplary compound or an exemplary composition to an insect nest.

ants = assay: Treatment of ground to form a boundary; settings: in vivo
Description: An exemplary method includes applying an exemplary compound or composition to the ground to thereby discourage insect traffic or deposition of insect semiochemicals. For example, where an exemplary compound is applied to the ground, the ground is not readily further marked by an insect semiochemical. A trial was performed where an exemplary compound (methyl anthranilate) was applied to the ground to form a boundary.

birds = settings: in vivo; cited from earlier work
Camponotus spp. = settings: in vivo; cited from earlier work
T. coloratus = settings: in vivo; cited from earlier work
Ceranisus menes = settings: in vivo; cited from earlier work

SMILES: COC(=O)c1ccccc1N [methyl anthranilate]
- attraction of fruit flies ([1]; combined with fatty acid): attracted fruit flies
- effectiveness in a competitive environment ([1]; grape crushing and/or fermenting may release competitive agents): may be diminished in a competitive environment
- insects on treated surface of sticky trap ([1]; in less than one minute, only a few insects on untreated surface): covered with insects
- corn ear worm larvae on the ground ([2]; combined with a fatty acid, applied later to field already treated with lambda cyalothrin, within a day): littered the ground
- corn ear worm larvae on the ground ([2]; combined with fatty acid, applied contemporaneously with lambda cyalothrin insecticide (WARRIOR), within a day of treatment): littered the ground
- appearance of sunflower seed head larvae [3]: began to appear on the surface of the sunflowers
- behavior of mites and spiders on treated sunflowers (mites and spiders): observed to appear from spaces between maturing seeds and to subsequently fall off the flower portion of the sunflowers
- fly response to treated section ([4]; 0.006% on filter paper, within one hour): avoided the section treated with the exemplary compound
- fly response to treated areas ([4]; approximately 0.00025%): relatively neutral
- fly response to treated areas ([4]; approximately 0.0025%): somewhat neutral
- fly response to treated areas ([4]; approximately 0.025%): avoided the treated areas
- fly response to treated areas ([4]; approximately 0.25%, 100 flies, monitored after 15 minutes and one hour): avoided the treated areas
- number of insects adhered to trap (insects; 0.0156 percent, 1 min): 3
- number of insects adhered to trap (insects; 0.0156 percent, 5 min): 22
- number of insects adhered to trap (insects; 0.0156 percent, 10 min): 75
- number of insects adhered to trap (insects; 0.0156 percent, 20 min): >75
- number of insects adhered to trap (insects; 0.0313 percent, 1 min): 5
- number of insects adhered to trap (insects; 0.0313 percent, 5 min): 15
- number of insects adhered to trap (insects; 0.0313 percent, 10 min): 68
- number of insects adhered to trap (insects; 0.0313 percent, 20 min): >68
- number of insects adhered to trap (insects; 0.0625 percent, 1 min): 7
- number of insects adhered to trap (insects; 0.0625 percent, 5 min): 35
- number of insects adhered to trap (insects; 0.0625 percent, 10 min): 128
- number of insects adhered to trap (insects; 0.0625 percent, 20 min): >128
- number of insects adhered to trap (insects; 0.1250 percent, 1 min): 15
- number of insects adhered to trap (insects; 0.1250 percent, 5 min): 62
- number of insects adhered to trap (insects; 0.1250 percent, 10 min): 256
- number of insects adhered to trap (insects; 0.1250 percent, 20 min): >256
- number of insects adhered to trap (insects; 0.2500 percent, 1 min): 43
- number of insects adhered to trap (insects; 0.2500 percent, 5 min): 84
- number of insects adhered to trap (insects; 0.2500 percent, 10 min): 346
- number of insects adhered to trap (insects; 0.2500 percent, 20 min): >346
- Number of Moth Larvae, Mean ([5]; Field No 2): 0.86
- Number of Moth Larvae, Total ([5]; Field No 2): 6
- Number of Moth Larvae, Mean ([5]; Field No. 1): 0.57
- Number of Moth Larvae, Total ([5]; Field No. 1): 4
- drawing larvae and weevils out of the seeds ([5]; after the crop had been treated with the insecticide alone): successful in drawing striped sunflower head math larvae out of the seeds
- ant activity at the site of the nest (ant nest): no ant activity was observed
- crossing of treated ground boundary (ants): ants did not cross this boundary
- repellency to birds (birds): exhibit repellency to birds
- effect on Camponotus spp. (Camponotus spp.): trigger flight of sexuals from nest
- attraction of T. coloratus (T. coloratus): are attracted
- attraction of Ceranisus menes (Ceranisus menes): are attracted
